Measurements taken from patent US11896649B2, “Methods and pharmaceutical compositions for the treatment of post-operative cognitive dysfunction” (INSERM (INSTITUT NATIONAL DE LA SANTE ET DE LA RECHERCHE …, priority 2016, dated 2024).

Columns and labels:
TNFa mRNA = conditions: fractured mice, tissues collected 72 hours after fracture; FIG. 3a
Procedure: (§1) All mice were anaesthetized with 2-3% sevoflurane. Adequate anesthesia was ascertained by an absent pedal withdrawal reflex after hard pinching of the toe. Closed tibial fracture was performed as previously described (Minville et al 2008). Briefly, after antiseptic preparation of the right paw with povidone-iodine, a unilateral closed fracture was produced in the right tibia using a specially designed fracture apparatus (blunt guillotine). For the intramedullary pinning using a sterile technique, a hole was made above the tibial tuberosity per-cutaneously using a 27 G needle (BD Microlance—27G ¾L 19 mm). Then, the needle was directed straight into the medullary canal. By rotating the needle, the canal was reamed to 5 mm up to the ankle joint. The end of the needle was cut as short as possible so that the skin could roll over and covers it. No suture was performed. The mouse was then placed with the leg on the anvil in order to line up the blunt guillotine with the proximal third of the tibia. A 300 g weight was decreased from a height of 9 to 10 cm, fracturing the tibia shaft.
(§2) Apelin administration (ip, 0.5 umol/kg, Bachem) has been performed 1 hour before fracture and daily during the 15 consecutive days.

IL-6 mRNA = conditions: fractured mice, tissues collected 72 hours after fracture; FIG. 3b
Procedure: as §1, §2

fractured mice [1] = test system: fractured mice
Procedure: as §1, §2

fractured mice [2] = conditions: 20 month old mice, i.p. apelin 0.5 nmol/kg before and during 3 days after the fracture, tested after 3 days; FIG. 4
Procedure: FIG. 4: Percentage of freezing in aged mice. Twenty month old male C57B16/j mice were fractured with (fracture apelin) or without (fracture PBS) an i.p treatment of apelin (0.5 nmol/kg) before and during 3 days after the fracture. After 3 days, animal hippocampal memory was tested by fear conditioning test. N=6 to 10, *p<0.05 compared to control.
To test the long-term memory and learning abilities, a fitness test to fear (Fear Conditioning Test) was used.
During the learning session, this test combines a painful and anxiety-producing event (2 short electrical discharges 0.3 mA 2 s on the legs) in an environmental context (floor cage with metal grills, washed several times a day with an alcoholic solution), visual (compound walls of black and white stripes, and white light patterns on the walls of the room) and sound (each discharge is preceded by a 80 dB sound 20 seconds). The learning phase lasted 4 minutes 25 seconds.
In the context of test sessions, conducted in the 3rd postoperative day, the animal was reintroduced in the same cage for 4 minutes. The context was the same but without sound stimulation or pain stimulus. […] Operator who ignored the treatment received by each animal evaluated the freezing time of each animal. […]

apelin
Hematoma TNFa mRNA expression (TNFa mRNA): strong decreased | Hippocampus IL-6 mRNA expression (IL-6 mRNA): avoid IL-6 increase | Pain and nociception measured by Von Frey technique (fractured mice [1]; apelin ip 0.5 umol/kg 1 hour before fracture and daily, tested at day 1, 5 and 15 after fracture, FIG. 1a): significantly decreased | Pain and nociception measured by Hargreave's technique (fractured mice [1]; apelin ip 0.5 umol/kg 1 hour before fracture and daily, tested at day 1, 5 and 15 after fracture, FIG. 1b): significantly decreased | Freezing rate in non-operated mice (fractured mice [1]; non-operated mice treated by apelin, FIG. 2): did not display change | Freezing rate in operated mice, compared to operated mice receiving saline injections (fractured mice [1]; operated mice, daily injection of apelin, day 3 after fracture, FIG. 2): increased | Hippocampal memory (percentage of freezing) in aged mice after fracture (fractured mice [2]): do not exhibit hippocampal memory failure
